Data set [1] in a line: Human whole blood (WB) assay. The format is in vitro ADME. The settings on record: pH 7.4, 1 μM compound, 37° C., average of 2 to 4 tests, read-out: WB assay, half-life T½. How it is done:
Incubations of test compounds in DMSO, diluted with phosphate buffer, pH 7.4, at 1 μM were carried out with human whole blood. The percentage of organic solvent in the incubations was 1%. The incubations were performed at 37° C. with aliquots taken at 0, 15, 30, 60 and 120 minutes, and reactions were terminated by addition of methanol containing analytical internal standard (IS). The results were expressed as half-life (T½) in minutes calculated from the rate constant (k) (min^−1) of test compound depletion.

Data set [2] is described as follows: Keratinocyte stability (KC) assay. The format is in vitro ADME. The settings on record: pH 7.4; plated human keratinocytes, 1 μM compound, 37° C.; average of 2 to 4 tests; read-out: KC assay, half-life T½. How it is done: Incubations of test compounds in DMSO, diluted with growing medium, pH ˜7.4, at 1 μM were carried out with plated human keratinocytes. The percentage of organic solvent in the incubations was 0.5%. The incubations were performed at 37° C. with aliquots taken at 0, 60, 120, 240 and 1440 minutes, and reactions were terminated by addition of methanol containing analytical internal standard (IS). The results were expressed as half-life (T½) in minutes calculated from the rate constant (k) (min^−1) of test compound depletion.

Data set [3] has as its system TNF-α release in human peripheral blood mononuclear cells (PBMC). Put plainly: TNF-α release. The settings on record: 18 h, read-out: TNF-α release assay, IC50.
From the text: Results are expressed as IC50 values (nM) calculated from inhibition curves using as positive controls the secretion in LPS stimulated wells and as negative controls the secretion in unstimulated cells.

Usually half-life stands for the time in which the quantity being followed falls by half. The term IC50 denotes the concentration needed to halve the response being measured.

Regarding `CC[C@H](C)OC(=O)C1(c2nc3c(OC)ccc(-c4ccc5c(c4)COC5=O)n3n2)CC1` [Compound 1, [(1S)-1-Methylpropyl]1-[8-methoxy-5-(1-oxo-3H-isobenzofuran-5-yl)-[1,2,4]triazolo-[1,5-a]pyridin-2-yl]cyclopropanecarboxylate], the half-life at 1 μM was 10.7 min in data set [1] and over 720 min in data set [2]. Also, the IC50 in data set [3] stood at 12.8 nM.

On to `CC[C@@H](C)OC(=O)C1(c2nc3c(OC)ccc(-c4ccc5c(c4)COC5=O)n3n2)CC1` [Compound 2, [(1R)-1-Methylpropyl]1-[8-methoxy-5-(1-oxo-3H-isobenzofuran-5-yl)-[1,2,4]triazolo-[1,5-a]pyridin-2-yl]cyclopropanecarboxylate], for which the results for the half-life at 1 μM in data set [1] and in data set [2] were 12.6 min and over 720 min, respectively. For the same compound, the IC50 in data set [3] is 15.7 nM.

As to `COc1ccc(-c2ccc3c(c2)COC3=O)n2nc(C3(C(=O)OCC(C)C)CC3)nc12` [Compound 3, [2-Methylpropyl]1-[8-methoxy-5-(1-oxo-3H-isobenzofuran-5-yl)-[1,2,4]triazolo[1,5-a]pyridin-2-yl]cyclopropanecarboxylate], the half-life at 1 μM in data set [1] is 16.6 min; in data set [2] it was over 720 min.

Consider `COc1ccc(-c2ccc3c(c2)COC3=O)n2nc(C3(C(=O)OC(C)(C)C)CC3)nc12` [Compound 4, Tert-butyl 1-[8-methoxy-5-(1-oxo-3H-isobenzofuran-5-yl)-[1,2,4]triazolo[1,5-a]pyridin-2-yl]cyclopropanecarboxylate], for which the half-life at 1 μM in data set [1] was under 11.2 min; in data set [2], over 720 min. Also, the IC50 in data set [3] came to 15.3 nM.

These data come from patent publication US9181248B2, “[1,2,4]triazolopyridines and their use as phosphodiesterase inhibitors” (LEO Pharma A/S, priority 2011, dated 2015).
